The values below come from patent US11814375B2, “Heterocyclic compounds” (Hoffmann-La Roche Inc., priority 2019, dated 2023).

Broadly, the IC50 is the concentration needed to halve the response being measured.

In this test the target is T1, MAGL (Homo sapiens, UniProt Q99685).
T1 sequence (Q99685 1-303): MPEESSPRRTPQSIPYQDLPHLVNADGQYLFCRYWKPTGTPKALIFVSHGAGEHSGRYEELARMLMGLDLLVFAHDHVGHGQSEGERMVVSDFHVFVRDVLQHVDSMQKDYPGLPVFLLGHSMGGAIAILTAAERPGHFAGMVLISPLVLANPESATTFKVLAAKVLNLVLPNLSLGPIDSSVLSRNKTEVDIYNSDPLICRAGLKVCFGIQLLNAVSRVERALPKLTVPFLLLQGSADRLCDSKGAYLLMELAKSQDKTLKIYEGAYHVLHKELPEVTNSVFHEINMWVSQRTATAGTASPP
In words: 2-AG assay: MAGL inhibitory activity by hydrolysis of 2-arachidonoylglycerol to arachidonic acid, followed by mass spectrometry. Particulars: 8 μM 2-arachidonoylglycerol, 15 min preincubation and 30 min reaction at RT, arachidonic acid/d8-arachidonic acid ratio by MS. Format: biochemical. The procedure: Compounds of formula (I) were profiled for MAGL inhibitory activity by determining the enzymatic activity by following the hydrolysis of the natural substrate 2-arachidonoylglycerol (2-AG) resulting in arachidonic acid, which can be followed by mass spectrometry. This assay is hereinafter abbreviated “2-AG assay”.
The 2-AG assay was carried out in 384 well assay plates (PP, Greiner Cat #784201) in a total volume of 20 μL. Compound dilutions were made in 100% DMSO (VWR Chemicals 23500.297) in a polypropylene plate in 3-fold dilution steps to give a final concentration range in the assay from 12.5 μM to […]. 0.25 μL compound dilutions (100% DMSO) were added to 9 μL MAGL in assay buffer (50 mM TRIS (GIBCO, 15567-027), 1 mM EDTA (Fluka, 03690-100 mL), 0.01% (v/v) Tween. After shaking, the plate was incubated for 15 min at RT. To start the reaction, 10 μL 2-arachidonoylglycerol in assay buffer was added. The final concentrations in the assay was […] and 8 μM 2-arachidonoylglyerol. After shaking and 30 min incubation at RT, the reaction was quenched by the addition of 40 μL of ACN containing 4 μM of d8-arachidonic acid. The amount of arachidonic acid was traced by an online SPE system (Agilent Rapidfire) coupled to a triple quadrupole mass spectrometer (Agilent 6460). A C18 SPE cartridge (G9205A) was used in an ACN/water liquid setup. The mass spectrometer was operated in negative electrospray mode following the mass transitions 303.1→259.1 for arachidonic acid and 311.1→267.0 for d8-arachidonic acid. The activity of the compounds was calculated based on the ratio of intensities [arachidonic acid/d8-arachidonic acid].
Turning to `O=C1CO[C@H]2CCN(C(=O)N3CC(c4ccc(Oc5ccccc5Cl)cc4)C3)C[C@H]2N1` [Example 2, (4aR,8aS)-6-[3-[4-(2-Chlorophenoxy)phenyl]azetidine-1-carbonyl]-4,4a,5,7,8,8a-hexahydropyrido[4,3-b][1,4]oxazin-3-one], the IC50 turned out to be 0.02 nM.

Regarding `CC(C)(C)Cn1nccc1-c1ccc(C2CN(C(=O)N3CC[C@@H]4OCC(=O)N[C@@H]4C3)C2)cc1` [Example 32a, (4aR,8aS)-6-[3-[4-[2-(2,2-Dimethylpropyl)pyrazol-3-yl]phenyl]azetidine-1-carbonyl]-4,4a,5,7,8,8a-hexahydropyrido[4,3-b][1,4]oxazin-3-one], the 50% inhibitory concentration (IC50) is 0.2 nM.

On to `O=C1CO[C@H]2CCN(C(=O)N3CC(c4ccc(Oc5ncccn5)cc4)C3)C[C@H]2N1` [Example 3, (4aR,8aS)-6-[3-(4-Pyrimidin-2-yloxyphenyl)azetidine-1-carbonyl]-4,4a,5,7,8,8a-hexahydropyrido[4,3-b][1,4]oxazin-3-one], for which the IC50 came out at 75.4 nM.

Take `O=C1CO[C@H]2CCN(C(=O)N3CC(c4ccc(Oc5ccnc(Cl)n5)cc4)C3)C[C@H]2N1` [Example 24, (+)-(4aR,8aS)-6-[3-[4-(2-Chloropyrimidin-4-yl)oxyphenyl]azetidine-1-carbonyl]-4,4a,5,7,8,8a-hexahydropyrido[4,3-b][1,4]oxazin-3-one]: the IC50 stood at 0.04 nM.

For the compound `O=C1CO[C@H]2CCN(C(=O)N3CC(O)(c4ccc(Oc5ccccc5)cn4)C3)C[C@H]2N1` [Example 56, (4aR,8aS)-6-[3-Hydroxy-3-(5-phenoxy-2-pyridyl)azetidine-1-carbonyl]-4,4a,5,7,8,8a-hexahydropyrido[4,3-b][1,4]oxazin-3-one], the IC50 turned out to be 15.5 nM.

Turning to `COc1ccnc(Oc2ccc(C3CN(C(=O)N4CC[C@@H]5OCC(=O)N[C@@H]5C4)C3)cc2)n1` [Example 13, (+)-(4aR,8aS)-6-[3-[4-(4-Methoxypyrimidin-2-yl)oxyphenyl]azetidine-1-carbonyl]-4,4a,5,7,8,8a-hexahydropyrido[4,3-b][1,4]oxazin-3-one], the IC50 stood at 12.7 nM.

On to `O=C1CO[C@H]2CCN(C(=O)N3CC(c4ccc(Oc5ccccc5Cl)nc4)C3)C[C@H]2N1` [Example 52, (4aR,8aS)-6-(3-(6-(2-Chlorophenoxy)pyridin-3-yl)azetidine-1-carbonyl)hexahydro-2H-pyrido[4,3-b][1,4]oxazin-3(4H)-one], for which the concentration for half-maximal inhibition (IC50) is 1.3 nM.

As to `Cc1ccnc(Oc2ccc(C3CN(C(=O)N4CC[C@@H]5OCC(=O)N[C@@H]5C4)C3)cc2)n1` [Example 5, (+)-(4aR,8aS)-6-[3-[4-(4-Methylpyrimidin-2-yl)oxyphenyl]azetidine-1-carbonyl]-4,4a,5,7,8,8a-hexahydropyrido[4,3-b][1,4]oxazin-3-one], the half-maximal inhibitory concentration (IC50) came to 23.8 nM.

With `O=C1CO[C@H]2CCN(C(=O)N3CC(c4ccc(Oc5ccc(F)cc5)cn4)C3)C[C@H]2N1` [Example 47, (4aR,8aS)-6-[3-[5-(4-Fluorophenoxy)-2-pyridyl]azetidine-1-carbonyl]-4,4a,5,7,8,8a-hexahydropyrido[4,3-b][1,4]oxazin-3-one], the IC50 was 1.4 nM.

Turning to `O=C1CO[C@H]2CCN(C(=O)N3CC(c4ccc(Oc5ccnnc5Cl)cc4)C3)C[C@H]2N1` [Example 12, (+)-(4aR,8aS)-6-[3-[4-(3-Chloropyridazin-4-yl)oxyphenyl]azetidine-1-carbonyl]-4,4a,5,7,8,8a-hexahydropyrido[4,3-b][1,4]oxazin-3-one], the IC50 was determined as 23.5 nM.

Consider `O=C1CO[C@H]2CCN(C(=O)N3CC(c4ccc(-c5ccnc(F)c5)cc4)C3)C[C@H]2N1` [Example 44, (4aR,8aS)-6-[3-[4-(2-Fluoropyridin-4-yl)phenyl]azetidine-1-carbonyl]-4,4a,5,7,8,8a-hexahydropyrido[4,3-b][1,4]oxazin-3-one], for which the IC50 came to 67.7 nM.
